# Measurements as given in ChEMBL document CHEMBL3886253, “Imidazolidinones and analogs exhibiting anti-cancer and anti-proliferative activities” (2015).
# How the values were obtained:
# [1] = target: Macrophage colony-stimulating factor 1 receptor (Homo sapiens, UniProt P07333); assay: Enzymatic Assay: Activity of unphosphorylated c-FMS kinase (uFMS, Seq. ID no. 1) was determined by following the production of ADP from the FMS kinase reaction with ATP and poly E4Y as substrates through coupling with the pyruvate kinase/lactate dehydrogenase system (e.g., Schindler et al. Science (2000) 289: 1938-1942). In this assay, the oxidation of NADH (thus the decrease at A340 nm) was continuously monitored spectrophometrically. The reaction mixture (100 µL) contained FMS (purchased from Millipore) (10 nM), polyE4Y (1 mg/mL), MgCl2 (10 mM), pyruvate kinase (4 units), lactate dehydrogenase (0.7 units), phosphoenol pyruvate (1 mM), NADH (0.28 mM) and ATP (500 µM) in 90 mM Tris buffer containing 0.2% octyl-glucoside and 1% DMSO, pH 7.5. The inhibition reaction was started by mixing serial diluted test compound with the above reaction mixture. The absorption at 340 nm was monitored continuously for 4 hours at 30° C. on Synergy 2 plate reader.
# Chain of Macrophage colony-stimulating factor 1 receptor (P07333 whole entry): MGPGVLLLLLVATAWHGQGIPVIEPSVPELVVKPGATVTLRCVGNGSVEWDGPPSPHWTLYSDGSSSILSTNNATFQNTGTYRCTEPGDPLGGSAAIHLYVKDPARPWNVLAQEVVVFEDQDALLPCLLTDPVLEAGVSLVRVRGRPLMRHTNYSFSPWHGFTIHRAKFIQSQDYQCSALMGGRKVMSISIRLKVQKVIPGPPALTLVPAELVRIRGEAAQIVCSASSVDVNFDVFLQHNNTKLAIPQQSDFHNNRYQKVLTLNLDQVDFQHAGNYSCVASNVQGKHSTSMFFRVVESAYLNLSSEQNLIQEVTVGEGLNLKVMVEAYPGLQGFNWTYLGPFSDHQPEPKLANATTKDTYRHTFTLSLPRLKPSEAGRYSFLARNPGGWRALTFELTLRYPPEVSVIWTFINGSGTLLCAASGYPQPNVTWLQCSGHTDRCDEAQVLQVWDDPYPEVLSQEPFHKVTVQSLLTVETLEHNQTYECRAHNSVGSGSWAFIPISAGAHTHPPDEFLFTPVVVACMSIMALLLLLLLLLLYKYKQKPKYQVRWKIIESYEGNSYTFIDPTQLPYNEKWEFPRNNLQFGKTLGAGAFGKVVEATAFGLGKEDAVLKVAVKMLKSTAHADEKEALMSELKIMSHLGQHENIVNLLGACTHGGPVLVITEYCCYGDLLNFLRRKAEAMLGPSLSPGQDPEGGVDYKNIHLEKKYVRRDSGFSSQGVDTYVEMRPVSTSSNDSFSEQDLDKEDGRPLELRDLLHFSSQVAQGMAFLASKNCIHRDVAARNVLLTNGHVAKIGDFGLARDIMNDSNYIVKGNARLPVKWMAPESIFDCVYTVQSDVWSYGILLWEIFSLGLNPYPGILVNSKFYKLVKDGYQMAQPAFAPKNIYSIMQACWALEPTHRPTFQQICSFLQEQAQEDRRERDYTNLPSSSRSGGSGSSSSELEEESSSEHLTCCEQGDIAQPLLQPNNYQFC
# [2] = target: Vascular endothelial growth factor receptor 2 (Homo sapiens, UniProt P35968); assay: (§1) In Vitro Receptor Tyrosine Kinase Assay: These tests measure the ability of compounds to inhibit the enzymatic activity of recombinant human c-Met/HGF receptor and VEGF receptor enzymatic activity. A 1.3-kb cDNA corresponding to the intracellular domain of c-Met or c-Met IC (Genbank accession number NP000236-1 amino acid 1078 to 1337) is cloned into the BamHI/XhoI sites of the pBlueBacHis2A vector (Invitrogen) for the production of a histidine-tagged version of that enzyme. This construct is used to generate recombinant baculovirus using the Bac-N-Blue¿ system according to the manufacturer's instructions (Invitrogen). The c-Met IC protein is expressed in Hi-5 cells (Trichoplusia Ni) upon infection with recombinant baculovirus construct. Briefly, Hi-5 cells grown in suspension and maintained in serum-free medium (Sf900 II supplemented with gentamycin) at a cell density of about 2x10^6 cells/ml are infected with the above-mentioned viruses at a multiplicity of infection (MOI) of 0.2 during 72 hours at 27 C.
# Chain of Vascular endothelial growth factor receptor 2 (P35968 whole entry, the tested form may be a part): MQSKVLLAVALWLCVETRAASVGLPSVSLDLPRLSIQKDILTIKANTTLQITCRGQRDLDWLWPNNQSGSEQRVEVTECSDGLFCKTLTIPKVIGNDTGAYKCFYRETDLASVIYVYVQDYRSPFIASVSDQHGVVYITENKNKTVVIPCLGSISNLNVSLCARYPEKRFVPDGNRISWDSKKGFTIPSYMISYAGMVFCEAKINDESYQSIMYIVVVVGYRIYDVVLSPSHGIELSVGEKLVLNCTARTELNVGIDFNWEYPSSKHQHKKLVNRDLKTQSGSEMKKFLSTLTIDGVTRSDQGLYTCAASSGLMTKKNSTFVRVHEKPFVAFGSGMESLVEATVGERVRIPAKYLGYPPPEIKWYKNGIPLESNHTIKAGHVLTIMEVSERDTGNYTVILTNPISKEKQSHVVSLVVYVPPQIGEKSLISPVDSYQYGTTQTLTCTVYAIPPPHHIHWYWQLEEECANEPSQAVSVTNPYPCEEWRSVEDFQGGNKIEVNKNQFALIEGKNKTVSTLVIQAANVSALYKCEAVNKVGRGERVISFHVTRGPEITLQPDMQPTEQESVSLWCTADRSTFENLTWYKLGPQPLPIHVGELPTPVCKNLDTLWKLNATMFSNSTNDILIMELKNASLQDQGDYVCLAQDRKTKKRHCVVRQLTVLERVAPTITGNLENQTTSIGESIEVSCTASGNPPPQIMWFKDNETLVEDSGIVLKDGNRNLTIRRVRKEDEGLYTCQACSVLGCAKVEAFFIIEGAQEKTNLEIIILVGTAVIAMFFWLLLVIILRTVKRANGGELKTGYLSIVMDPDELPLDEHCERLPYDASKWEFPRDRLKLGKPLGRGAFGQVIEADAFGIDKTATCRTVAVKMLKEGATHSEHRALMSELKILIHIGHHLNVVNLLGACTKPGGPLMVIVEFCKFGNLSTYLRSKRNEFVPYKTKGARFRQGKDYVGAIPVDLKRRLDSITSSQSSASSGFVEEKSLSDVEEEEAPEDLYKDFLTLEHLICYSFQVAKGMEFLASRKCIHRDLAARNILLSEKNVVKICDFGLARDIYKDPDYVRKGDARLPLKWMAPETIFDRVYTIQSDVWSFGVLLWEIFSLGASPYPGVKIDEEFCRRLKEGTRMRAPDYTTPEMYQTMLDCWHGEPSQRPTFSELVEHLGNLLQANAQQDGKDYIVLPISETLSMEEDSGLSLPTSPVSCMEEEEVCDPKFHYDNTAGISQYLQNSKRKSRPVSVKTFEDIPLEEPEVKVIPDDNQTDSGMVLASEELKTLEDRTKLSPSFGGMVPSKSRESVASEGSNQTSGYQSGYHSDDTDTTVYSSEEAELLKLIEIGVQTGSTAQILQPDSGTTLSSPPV
# [3] = target: Hepatocyte growth factor receptor (Homo sapiens, UniProt P08581); assay: as §1
# Chain of Hepatocyte growth factor receptor (P08581 whole entry): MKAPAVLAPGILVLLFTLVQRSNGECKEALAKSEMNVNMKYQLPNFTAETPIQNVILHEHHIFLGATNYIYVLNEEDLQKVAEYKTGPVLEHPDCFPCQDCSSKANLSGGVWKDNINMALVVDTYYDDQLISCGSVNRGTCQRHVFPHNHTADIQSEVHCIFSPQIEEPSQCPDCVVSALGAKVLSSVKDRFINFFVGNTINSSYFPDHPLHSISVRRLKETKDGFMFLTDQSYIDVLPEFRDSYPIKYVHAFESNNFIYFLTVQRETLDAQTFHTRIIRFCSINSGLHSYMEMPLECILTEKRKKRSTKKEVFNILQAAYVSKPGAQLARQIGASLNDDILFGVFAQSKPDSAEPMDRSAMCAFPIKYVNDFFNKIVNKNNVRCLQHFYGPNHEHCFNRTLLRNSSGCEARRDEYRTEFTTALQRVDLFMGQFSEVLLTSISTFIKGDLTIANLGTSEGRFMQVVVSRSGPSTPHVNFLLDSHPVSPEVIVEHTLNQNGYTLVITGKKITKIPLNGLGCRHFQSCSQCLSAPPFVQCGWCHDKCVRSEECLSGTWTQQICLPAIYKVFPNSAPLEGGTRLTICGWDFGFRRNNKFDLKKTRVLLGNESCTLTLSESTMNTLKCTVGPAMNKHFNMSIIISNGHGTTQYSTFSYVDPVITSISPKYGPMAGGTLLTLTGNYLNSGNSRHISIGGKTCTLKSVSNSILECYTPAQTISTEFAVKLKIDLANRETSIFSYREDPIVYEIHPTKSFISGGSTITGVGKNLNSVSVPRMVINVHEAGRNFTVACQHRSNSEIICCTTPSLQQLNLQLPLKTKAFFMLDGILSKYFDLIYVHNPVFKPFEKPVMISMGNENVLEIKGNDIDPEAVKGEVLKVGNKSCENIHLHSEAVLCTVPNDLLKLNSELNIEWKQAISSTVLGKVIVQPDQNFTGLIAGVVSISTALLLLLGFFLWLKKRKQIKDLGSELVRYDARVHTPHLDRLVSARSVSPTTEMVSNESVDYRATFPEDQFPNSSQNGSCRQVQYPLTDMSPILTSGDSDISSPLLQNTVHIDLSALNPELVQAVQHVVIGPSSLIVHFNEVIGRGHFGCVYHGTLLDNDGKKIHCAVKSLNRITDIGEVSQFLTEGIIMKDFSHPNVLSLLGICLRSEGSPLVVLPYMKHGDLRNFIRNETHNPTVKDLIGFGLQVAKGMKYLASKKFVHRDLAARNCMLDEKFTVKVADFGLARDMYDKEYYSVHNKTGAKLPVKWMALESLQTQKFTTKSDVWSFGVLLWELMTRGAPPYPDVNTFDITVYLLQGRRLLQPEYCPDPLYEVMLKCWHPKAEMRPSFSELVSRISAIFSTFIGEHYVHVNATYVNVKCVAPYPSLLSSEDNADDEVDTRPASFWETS
structure (smiles),measurement,setting,value
Cn1cc(-c2cc(Oc3ccc(NC(=O)N4CCN(c5ccc(F)cc5)C4=O)nc3)ccn2)cn1,IC50,[1],0.013 µM
same,IC50,[2],0.99 µM
same,IC50,[3],0.196 µM
